Measurements from the supplement of paper PMC4862054.

Tests used:
Conditions in all cases: incubation time: 72 h
CAL-51 [1] = assay: normalised viability (% of control), CellTiter-Blue; higher = more viable cells (about 100 = DMSO control)
How it was run: (§1)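 Breast cancer cell lines were treated for 72 h in 384-well format and measured by CellTiter-Blue fluorescence at 560/590 nm. Results were normalised per plate to vehicle (100) and a positive kill control (0). The entry is normalised viability at a single listed concentration of the series.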

CAL-85-1 [2] = assay: as above
How it was run: as §1

HCC1599 [3] = assay: as above
How it was run: as §1

HCC1937 [4] = assay: as above
How it was run: as §1

HDQ-P1 [5] = assay: as above
How it was run: as §1

MDA-MB-468 [6] = assay: as above
How it was run: as §1

MFM-223 [7] = assay: as above
How it was run: as §1

BT-474 = assay: drug sensitivity score (DSS), CellTox Green (DSS (AUC-based score)); higher = stronger drug effect (viability inhibition or cytotoxicity); extreme values may be limits of the assay
How it was run: (§2)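 Breast cancer cell lines were seeded in 20 µl suspension into 384-well plates already holding compound and incubated for 72 h. Each compound was tested at 5 concentrations in 10-fold steps across its own 10,000-fold range. Plates were normalised to 0.1 % DMSO and a positive kill control after CellTox Green and then CellTiter-Glo readings. The area under the fitted dose-response curve served as the basis for the drug sensitivity score.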

BT-549 = assay: as above
How it was run: as §2

CAL-120 = assay: as above
How it was run: as §2

CAL-148 = assay: as above
How it was run: as §2

CAL-51 [8] = assay: as above
How it was run: as §2

CAL-85-1 [9] = assay: as above
How it was run: as §2

DU-4475 = assay: as above
How it was run: as §2

HCC1143 = assay: as above
How it was run: as §2

HCC1599 [10] = assay: as above
How it was run: as §2

HCC1937 [11] = assay: as above
How it was run: as §2

HDQ-P1 [12] = assay: as above
How it was run: as §2

Hs578T = assay: as above
How it was run: as §2

MCF-10A = assay: as above
How it was run: as §2

MDA-MB-231 = assay: as above
How it was run: as §2

MDA-MB-453 = assay: as above
How it was run: as §2

MDA-MB-468 [13] = assay: as above
How it was run: as §2

MFM-223 [14] = assay: as above
How it was run: as §2

MDA-MB-436 = assay: as above
How it was run: as §2

| SMILES | normalised viability (CAL-51 [1]; 3 nM) | normalised viability (CAL-85-1 [2]; 3 nM) | normalised viability (HCC1599 [3]; 1000 nM) | normalised viability (HCC1937 [4]; 1000 nM) | normalised viability (HDQ-P1 [5]; 3 nM) | normalised viability (MDA-MB-468 [6]; 1000 nM) | normalised viability (MFM-223 [7]; 1000 nM) | normalised viability (CAL-51 [1]; 30 nM) | normalised viability (CAL-51 [1]; 100 nM) | normalised viability (CAL-85-1 [2]; 30 nM) | normalised viability (CAL-85-1 [2]; 100 nM) | normalised viability (HCC1599 [3]; 10 nM) | normalised viability (HCC1599 [3]; 10000 nM) | normalised viability (HCC1937 [4]; 10 nM) | normalised viability (HCC1937 [4]; 10000 nM) | normalised viability (HDQ-P1 [5]; 30 nM) | normalised viability (HDQ-P1 [5]; 100 nM) | normalised viability (MDA-MB-468 [6]; 10 nM) | normalised viability (MDA-MB-468 [6]; 10000 nM) | normalised viability (MFM-223 [7]; 10 nM) | further results |
| --- | --- | --- | --- | --- | --- | --- | --- | --- | --- | --- | --- | --- | --- | --- | --- | --- | --- | --- | --- | --- | --- |
| CC(=O)Nc1ccc(C(=O)Nc2ccccc2N)cc1 [CI-994] | 94.6% | 104% | 84.8% | 89.9% | 125% | 100% | 102% | – | – | – | – | – | – | – | – | – | – | – | – | – | normalised viability (CAL-51 [1]; 0.3 nM): 94.6%; normalised viability (CAL-51 [1]; 10 nM): 96.7%; normalised viability (CAL-85-1 [2]; 0.3 nM): 104%; normalised viability (CAL-85-1 [2]; 10 nM): 101%; normalised viability (HCC1599 [3]; 1 nM): 104%; normalised viability (HCC1599 [3]; 100 nM): 99.8%; normalised viability (HCC1937 [4]; 1 nM): 86.9%; normalised viability (HCC1937 [4]; 100 nM): 101%; normalised viability (HDQ-P1 [5]; 0.3 nM): 113%; normalised viability (HDQ-P1 [5]; 10 nM): 108%; normalised viability (MDA-MB-468 [6]; 1 nM): 99.6%; normalised viability (MDA-MB-468 [6]; 100 nM): 115%; normalised viability (MFM-223 [7]; 1 nM): 107%; normalised viability (MFM-223 [7]; 100 nM): 109% |
| C[C@@H](Oc1cc(-c2cnn(C3CCNCC3)c2)cnc1N)c1c(Cl)ccc(F)c1Cl [Crizotinib] | 107% | 91.7% | 99.1% | 89.2% | 88.4% | 95.3% | 73% | 107% | 108% | 91% | 94% | 105% | 60.8% | 38.1% | 7.72% | 91.3% | 88.6% | 107% | 8.61% | 75.5% | normalised viability (MFM-223 [7]; 10000 nM): 34.1%; drug sensitivity score (BT-474): 0; drug sensitivity score (BT-549): 0; drug sensitivity score (CAL-120): 0; drug sensitivity score (CAL-148): 0; drug sensitivity score (CAL-51 [8]): 0; drug sensitivity score (CAL-85-1 [9]): 0; drug sensitivity score (DU-4475): 0; drug sensitivity score (HCC1143): 0; drug sensitivity score (HCC1599 [10]): 0; drug sensitivity score (HCC1937 [11]): 0; drug sensitivity score (HDQ-P1 [12]): 0.784; drug sensitivity score (Hs578T): 0; drug sensitivity score (MCF-10A): 0; drug sensitivity score (MDA-MB-231): 0; drug sensitivity score (MDA-MB-453): 0; drug sensitivity score (MDA-MB-468 [13]): 0; drug sensitivity score (MFM-223 [14]): 0 |
| C[C@]12CC[C@@H]3c4ccc(O)cc4C[C@@H](CCCCCCCCC[S+]([O-])CCCC(F)(F)C(F)(F)F)[C@H]3[C@@H]1CC[C@@H]2O (stereo partly drawn) [Fulvestrant] | 116% | 91.8% | 82.6% | 85.5% | 83.7% | 104% | 77.6% | 107% | 109% | 91.7% | 90.3% | 93.9% | 92.4% | 88.3% | 88.3% | 92.2% | 94% | 97.5% | 83.6% | 67.2% | normalised viability (MFM-223 [7]; 10000 nM): 45.2%; drug sensitivity score (BT-474): 0; drug sensitivity score (BT-549): 0; drug sensitivity score (CAL-120): 0; drug sensitivity score (CAL-148): 0; drug sensitivity score (CAL-51 [8]): 0; drug sensitivity score (CAL-85-1 [9]): 0; drug sensitivity score (DU-4475): 0; drug sensitivity score (HCC1143): 0; drug sensitivity score (HCC1599 [10]): 0; drug sensitivity score (HCC1937 [11]): 0; drug sensitivity score (HDQ-P1 [12]): 0; drug sensitivity score (Hs578T): 0; drug sensitivity score (MCF-10A): 0; drug sensitivity score (MDA-MB-231): 0; drug sensitivity score (MDA-MB-436): 0; drug sensitivity score (MDA-MB-453): 0; drug sensitivity score (MFM-223 [14]): 0 |
| O=P1(NCCCl)OCCCN1CCCl (stereo not drawn) [Ifosfamide] | 114% | 88.3% | 93.9% | 74.6% | 94% | 120% | 91.6% | 110% | 107% | 89.1% | 95.7% | 100% | 89.7% | 84% | 97.6% | 93.9% | 103% | 110% | 103% | 87.1% | normalised viability (MFM-223 [7]; 10000 nM): 97.3%; drug sensitivity score (BT-474): 0; drug sensitivity score (BT-549): 0.736; drug sensitivity score (CAL-120): 0; drug sensitivity score (CAL-148): 0; drug sensitivity score (CAL-51 [8]): 0; drug sensitivity score (CAL-85-1 [9]): 0; drug sensitivity score (DU-4475): 0; drug sensitivity score (HCC1143): 0; drug sensitivity score (HCC1599 [10]): 0; drug sensitivity score (HDQ-P1 [12]): 0; drug sensitivity score (Hs578T): 0; drug sensitivity score (MCF-10A): 0; drug sensitivity score (MDA-MB-231): 1.11; drug sensitivity score (MDA-MB-453): 0; drug sensitivity score (MDA-MB-468 [13]): 0; drug sensitivity score (MFM-223 [14]): 0 |
| NCC(=O)CCC(=O)O [Aminolevulinic acid] | 105% | 99.9% | 86.5% | 84.2% | 95.2% | 111% | 91.3% | 100% | 92.9% | 87.1% | 98.8% | 84.3% | 90.8% | 86.8% | 86.4% | 105% | 110% | 101% | 102% | 92.2% | normalised viability (MFM-223 [7]; 10000 nM): 87.3% |
| Cn1c(CCCC(=O)O)nc2cc(N(CCCl)CCCl)ccc21 [Bendamustine] | 111% | 91.2% | 105% | 85.7% | 105% | 95% | 87.4% | 105% | 111% | 94.8% | 100% | 115% | 114% | 55.3% | 93.7% | 119% | 109% | 107% | 82.3% | 96.2% | normalised viability (MFM-223 [7]; 10000 nM): 93.5%; drug sensitivity score (BT-474): 0; drug sensitivity score (BT-549): 0; drug sensitivity score (CAL-120): 0; drug sensitivity score (CAL-148): 0; drug sensitivity score (CAL-51 [8]): 0; drug sensitivity score (CAL-85-1 [9]): 0; drug sensitivity score (DU-4475): 0; drug sensitivity score (HCC1143): 0; drug sensitivity score (HCC1599 [10]): 0; drug sensitivity score (HCC1937 [11]): 0; drug sensitivity score (HDQ-P1 [12]): 0; drug sensitivity score (MCF-10A): 0; drug sensitivity score (MDA-MB-231): 4.63; drug sensitivity score (MDA-MB-436): 0; drug sensitivity score (MDA-MB-453): 0; drug sensitivity score (MDA-MB-468 [13]): 4.02; drug sensitivity score (MFM-223 [14]): 0 |
